Source: patent US11180504B2 (ORCHID PHARMA LTD., priority 2016, dated 2021)
≈ marks a conversion by molar mass, not a printed value.

What was measured:
[1] = system: methicillin-sensitive Staphylococcus aureus; experiment: MIC by broth micro-dilution (CLSI), methicillin-sensitive S. aureus; type: cell-based; settings: Staphylococcus aureus, ATCC 29213 / MSSA, MSSA S. aureus ATCC29213; read-out: MIC
[2] = system: carbapenem sensitive Pseudomonas aeruginosa; experiment: MIC by broth micro-dilution (CLSI), carbapenem sensitive P. aeruginosa; type: cell-based; settings: Pseudomonas aeruginosa, ATCC27853, Meropenem susceptible P. aeruginosa ATCC27853; read-out: MIC
[3] = system: carbapenemase producing K. pneumoniae; experiment: MIC by broth micro-dilution (CLSI), carbapenemase producing K. pneumoniae; type: cell-based, Klebsiella pneumoniae; settings: Klebsiella pneumoniae, ATCCBAA1705, KPC-2 K. pneumoniae ATCC BAA-1705; read-out: MIC
[4] = system: carbapenem sensitive Escherichia coli; experiment: MIC by broth micro-dilution (CLSI), carbapenem sensitive E. coli; type: cell-based; settings: Escherichia coli, ATCC25922, ESBL −ve E. coli ATCC25922; read-out: MIC

MIC [1] [µg/mL] | MIC [2] [µg/mL] | MIC [3] [µg/mL] | MIC [4] [µg/mL] | SMILES
8 (≈ 14.2 µM) | 8 (≈ 14.2 µM) | 4 (≈ 7.12 µM) | 1 (≈ 1.78 µM) | C[C@@H](NC(=O)Cn1cnnn1)[C@H]1C(=O)N2C(C(=O)O)=C(S[C@@H]3CN[C@H](C(=O)N4CCC(C)(N)CC4)C3)[C@H](C)[C@H]12 [Example 332, (4R,5S,6R)-6-((R) - 1-(2-(1H-tetrazol-1-yl)acetamido)ethyl)-3-((3S,5S)-5-(4-amino-4-methylpiperidine-1-carbonyl)pyrrolidin-3-ylthio)-4-methyl-7-oxo-1-azabicyclo[3.2.0]hept-2-ene-2-carboxylic acid]
8 (≈ 14.7 µM) | 4 (≈ 7.33 µM) | 4 (≈ 7.33 µM) | 0.5 (≈ 0.916 µM) | C[C@@H](NC(=O)Cn1cnnn1)[C@H]1C(=O)N2C(C(=O)O)=C(S[C@@H]3CN[C@H](C(=O)N4CC5C(N)C5C4)C3)[C@H](C)[C@H]12 (stereo partly drawn) [Example 333, (4R,5S,6R)-6-((R) - 1-(2-(1H-tetrazol-1-yl)acetamido)ethyl)-3-((3S,5S)-5-(6-amino-3-azabicyclo[3.1.0]hexane-3-carbonyl)pyrrolidin-3-ylthin)-4-methyl-7-oxo-1-azabicyclo[3.2.0]hept-2-ene-2-carboxylic acid]
4 (≈ 7.3 µM) | 8 (≈ 14.6 µM) | 4 (≈ 7.3 µM) | 1 (≈ 1.83 µM) | C[C@@H](NC(=O)Cn1cnnn1)[C@H]1C(=O)N2C(C(=O)O)=C(S[C@@H]3CN[C@H](C(=O)N4CCC[C@@H](N)C4)C3)[C@H](C)[C@H]12 [Example 336, (4R,5S,6R)-6-((R) - 1-(2-(1H-tetrazol-1-yl)acetamido)ethyl)-3-((3S,5S)-5-((R)-3-aminopiperidine-1-carbonyl)pyrrolidin-3-ylthio)-4-methyl-7-oxo-1-azabicyclo[3.2.0]hept-2-ene-2-carboxylic acid]
8 (≈ 14.6 µM) | 4 (≈ 7.3 µM) | 4 (≈ 7.3 µM) | 1 (≈ 1.83 µM) | C[C@@H](NC(=O)Cn1cnnn1)[C@H]1C(=O)N2C(C(=O)O)=C(S[C@@H]3CN[C@H](C(=O)N4CCC(N)CC4)C3)[C@H](C)[C@H]12 [Example 340, (4R,5S,6R)-6-((R) - 1-(2-(1H-tetrazol-1-yl)acetamido)ethyl)-3-((3S,5S)-5-(4-aminopiperidine-1-carbonyl)pyrrolidin-3-ylthio)-4-methyl-7-oxo-1-azabicyclo[3.2.0]hept-2-ene-2-carboxylic acid]
4 (≈ 7.3 µM) | 8 (≈ 14.6 µM) | 4 (≈ 7.3 µM) | 1 (≈ 1.83 µM) | C[C@@H](NC(=O)Cn1cnnn1)[C@H]1C(=O)N2C(C(=O)O)=C(S[C@@H]3CN[C@H](C(=O)N4CCC[C@H](N)C4)C3)[C@H](C)[C@H]12 [Example 341, (4R,5S,6R)-6-((R) - 1-(2-(1H-tetrazol-1-yl)acetamido)ethyl)-3-((3S,5S)-5-((S)-3-aminopiperidin-1-carbonyl)pyrrolidin-3-ylthio)-4-methyl-7-oxo-1-azabicycio[3.2.0]hept-2-ene-2-carboxylic acid]

Further lines, the compound ahead of its results:

SMILES | MIC [1] [µg/mL] | MIC [2] [µg/mL] | MIC [3] [µg/mL] | MIC [4] [µg/mL]
Cc1nnnn1CC(=O)N[C@H](C)[C@H]1C(=O)N2C(C(=O)O)=C(S[C@@H]3CN[C@H](C(=O)N(C)C)C3)[C@H](C)[C@H]12 [Example 330, (4R,5S,6R)-3-((3S,5S)-5-(dimethylcarbamoyl)pyrrolidin-3-ylthio)-4-methyl-6-((R) - 1-(2-(5-methyl-1H-tetrazol-1-yl)acetamido)ethyl)-7-oxo-1-azabicyclo[3.2.0]hept-2-ene-2-carboxylic acid] | 8 (≈ 15.8 µM) | 64 (≈ 126 µM) | 2 (≈ 3.95 µM) | 0.25 (≈ 0.493 µM)
Cc1nnnn1CC(=O)N[C@H](C)[C@H]1C(=O)N2C(C(=O)O)=C(S[C@@H]3CN[C@H](C(=O)N4CC[C@@H](N)C4)C3)[C@H](C)[C@H]12 [Example 331, (4R,5S,6R)-3-((3S,5S)-5-((R)-3-aminopyrrolidine-1-carbonyl)pyrrolidin-3-ylthio)-4-methyl-6-((R) - 1-(2-(5-methyl-1H-tetrazal-1-yl)acetamido)ethyl)-7-oxo-1-azabicyclo[3.2.0]hept-2-ene-2-carboxylic acid] | 4 (≈ 7.3 µM) | 8 (≈ 14.6 µM) | 4 (≈ 7.3 µM) | 0.25 (≈ 0.457 µM)
C[C@@H](NC(=O)Cn1nnc(C(F)(F)F)n1)[C@H]1C(=O)N2C(C(=O)O)=C(S[C@@H]3CN[C@H](C(=O)N4CC[C@@H](N)C4)C3)[C@H](C)[C@H]12 [Example 334, (4R,5S,6R)-3-((3S,5S)-5-((R)-3-aminopyrrolidine-1-carbonyl)pyrrolidin-3-ylthio)-4-methyl-7-oxo-6-((R) - 1-(2-(5-(trifluoromethyl)-2H-tetrazol-2-yl)acetamido)ethyl) - 1-azabicyclo[3.2.0]hept-2-ene-2-carboxylic acid] | 4 (≈ 6.65 µM) | 128 (≈ 213 µM) | 32 (≈ 53.2 µM) | 0.5 (≈ 0.831 µM)
C[C@@H](NC(=O)Cn1nnc(C(F)(F)F)n1)[C@H]1C(=O)N2C(C(=O)O)=C(S[C@@H]3CN[C@H](C(=O)N(C)C)C3)[C@H](C)[C@H]12 [Example 335, (4R,5S,4R)-3-((3S,5S)-5-(dimethylcarbamoyl)pyrrolidin-3-ylthio)-4-methyl-7-oxo-6-((R) - 1-(2-(5-(trifluoromethyl)-2H-tetrazol-2-yl)acetamido)ethyl) - 1-azabicyclo[3.2.0]hept-2-ene-2-carboxylic acid] | 4 (≈ 7.14 µM) | > 128 | 64 (≈ 114 µM) | 1 (≈ 1.78 µM)
C[C@@H]1C(S[C@@H]2CN[C@H](C(=O)N(C)C)C2)=C(C(=O)O)N2C(=O)[C@H]([C@@H](C)NC(=O)C(F)F)[C@@H]12 [Example 337, (4S,5S,6R)-6-((R) - 1-(2,2-difluoroacetamido)ethyl)-3-((3S,5S)-5-(dimethylcarbamoyl)pyrrolidin-3-ylthio)-4-methyl-7-oxo-1-azabicyclo[3.2.0]hept-2-ene-2-carboxylic acid] | 2 (≈ 4.34 µM) | 32 (≈ 69.5 µM) | 1 (≈ 2.17 µM) | 0.5 (≈ 1.09 µM)
CCOC(=O)c1nnnn1CC(=O)N[C@H](C)[C@H]1C(=O)N2C(C(=O)O)=C(S[C@@H]3CN[C@H](C(=O)N(C)C)C3)[C@H](C)[C@H]12 [Example 338, (4R,5S,6R)-3-((3S,5S)-5-(dimethylcarbamoyl)pyrrolidin-3-ylthio)-6-((R) - 1-(2-(5-(ethoxycarbonyl) - 1H-tetrazol-1-yl)acetamido)ethyl)-4-methyl-7-oxo-1-azabicyclo[3.2.0]hept-2-ene-2-carboxylic acid] | 8 (≈ 14.2 µM) | 128 (≈ 227 µM) | 32 (≈ 56.7 µM) | 2 (≈ 3.54 µM)
CCOC(=O)c1nnnn1CC(=O)N[C@H](C)[C@H]1C(=O)N2C(C(=O)O)=C(S[C@@H]3CN[C@H](C(=O)N4CC[C@@H](N)C4)C3)[C@H](C)[C@H]12 [Example 339, (4R,5S,6R)-3-((3S,5S)-5-((R)-3-aminopyrrolidine-1-carbonyl)pyrrolidin-3-ylthio)-6-((R) - 1-(2-(5-(ethoxycarbonyl) - 1H-tetrazol-1-yl)acetamido)ethyl)-4-methyl-7-oxo-1-azabicyclo[3.2.0]bept-2-ene-2-carboxylic acid] | 8 (≈ 13.2 µM) | 32 (≈ 52.8 µM) | 32 (≈ 52.8 µM) | 1 (≈ 1.65 µM)
